Measured values as given in ChEMBL document CHEMBL1201862, “PubChem BioAssay data set” (2004).
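Five compound concentrations were applied to cells in 96-well plates for 48 hours; endpoints were derived by simple linear interpolation of the resulting dose-response curve. GI50 is the concentration that inhibits growth by half.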 Active and inactive are the calls of the source. Cut-off read from the data, not from the text of the source: active = GI50 up to about 1.1 µM and inactive = higher.

Tests used:
Test in all cases: DTP human tumour cell line panel, 48 h
HOP-62 = tested on: HOP-62
MCF7 = tested on: MCF7
MDA-MB-435 = tested on: MDA-MB-435
CAKI-1 = tested on: CAKI-1
OVCAR-4 = tested on: OVCAR-4
Hs-578T = tested on: Hs-578T
DU-145 = tested on: DU-145
PC-3 = tested on: PC-3
M14 = tested on: M14
T47D = tested on: T47D
SR = tested on: SR
SF-539 = tested on: SF-539
HL-60 = tested on: HL-60
SNB-19 = tested on: SNB-19
NCI/ADR-RES = tested on: NCI/ADR-RES
ACHN = tested on: ACHN
NCI-H226 = tested on: NCI-H226
DMS-114 = tested on: DMS-114
KM-20L2 = tested on: KM-20L2
DMS-273 = tested on: DMS-273

Compound | GI50 (HOP-62) | GI50 (MCF7) | GI50 (MDA-MB-435) | GI50 (CAKI-1) | GI50 (OVCAR-4) | GI50 (Hs-578T) | GI50 (DU-145) | GI50 (PC-3) | GI50 (M14) | GI50 (T47D) | GI50 (SR) | GI50 (SF-539) | GI50 (HL-60) | GI50 (SNB-19) | GI50 (NCI/ADR-RES) | GI50 (ACHN) | GI50 (NCI-H226) | GI50 (DMS-114) | GI50 (KM-20L2) | GI50 (DMS-273)
COc1ccc(-c2c3c(nc4nc(SCCc5ccccc5)nc(N)c24)CCCC3)cc1OC | 90.8 µM (inactive) | > 100 µM (inactive) | > 100 µM (inactive) | > 100 µM (inactive) | 75.7 µM (inactive) | 27 µM (inactive) | > 100 µM (inactive) | > 100 µM (inactive) | > 100 µM (inactive) | > 100 µM (inactive) | > 100 µM (inactive) | 85.7 µM (inactive) | > 100 µM (inactive) | > 100 µM (inactive) | > 100 µM (inactive) | > 100 µM (inactive) |  |  |  | 
O=C(N/N=C/c1ccccc1)c1c(F)c(F)c(F)c(F)c1F | > 100 µM (inactive) |  | 37.8 µM (inactive) | > 100 µM (inactive) | > 100 µM (inactive) | > 100 µM (inactive) | > 100 µM (inactive) | > 100 µM (inactive) | 56.8 µM (inactive) | > 100 µM (inactive) | > 100 µM (inactive) | 67 µM (inactive) | > 100 µM (inactive) | > 100 µM (inactive) | > 100 µM (inactive) | > 100 µM (inactive) | > 100 µM (inactive) |  |  | 
N#CCc1c(F)c(F)c(F)c(F)c1F | > 100 µM (inactive) | > 100 µM (inactive) | > 100 µM (inactive) | > 100 µM (inactive) |  | > 100 µM (inactive) | > 100 µM (inactive) | > 100 µM (inactive) | > 100 µM (inactive) | > 100 µM (inactive) | > 100 µM (inactive) | > 100 µM (inactive) | > 100 µM (inactive) | > 100 µM (inactive) | > 100 µM (inactive) | > 100 µM (inactive) | > 100 µM (inactive) |  |  | 
CC1CC/C(=C\c2ccc(Cl)cc2)C(=O)/C1=C\c1ccc(Cl)cc1 (stereo not drawn) | 25.6 µM (inactive) | 36.2 µM (inactive) | 36.8 µM (inactive) | 20.3 µM (inactive) |  | 36.8 µM (inactive) | 49.2 µM (inactive) | 34.4 µM (inactive) | 24 µM (inactive) | 58.9 µM (inactive) |  |  |  | > 10 µM (inactive) |  | 32.9 µM (inactive) |  |  |  | 
Cc1cccc(C(C)C)c1NC(=O)/C(Cc1c([N+](=O)[O-])cccc1[N+](=O)[O-])=N/NC(=O)CC#N |  |  |  | > 100 µM (inactive) |  |  |  |  | > 100 µM (inactive) |  |  | > 100 µM (inactive) | > 100 µM (inactive) | > 100 µM (inactive) |  | > 100 µM (inactive) | > 100 µM (inactive) | > 100 µM (inactive) | > 100 µM (inactive) | > 100 µM (inactive)
COc1ccc(/N=C(\C)c2ccncc2)cc1 | > 100 µM (inactive) | 66.7 µM (inactive) | 26.9 µM (inactive) | > 100 µM (inactive) | > 100 µM (inactive) | > 100 µM (inactive) | 83 µM (inactive) | > 100 µM (inactive) | > 100 µM (inactive) | > 100 µM (inactive) |  | 21 µM (inactive) |  | > 100 µM (inactive) | > 100 µM (inactive) | 34.7 µM (inactive) | 93.3 µM (inactive) |  |  | 
O=C1C[C@H](Sc2ccccc2)C2(OCCO2)[C@@H](Sc2ccccc2)C1 | 3.27 µM (inactive) | 1.17 µM (inactive) | 2.25 µM (inactive) | 3.1 µM (inactive) | 5.07 µM (inactive) | 1.77 µM (inactive) | 3.19 µM (inactive) | 1.93 µM (inactive) | 1.78 µM (inactive) | 5.13 µM (inactive) | 0.322 µM (active) | 0.998 µM (active) | 0.272 µM (active) | 11 µM (inactive) | 1.88 µM (inactive) | 1.77 µM (inactive) | 2.31 µM (inactive) |  |  | 
Cc1ccc(S(=O)(=O)N2c3ccccc3[C@H]3CCc4c([nH]c5ccccc45)[C@H]32)cc1 | 84.9 µM (inactive) | > 100 µM (inactive) | 48.3 µM (inactive) | 4.33 µM (inactive) | 0.942 µM (active) |  | > 100 µM (inactive) | > 100 µM (inactive) | > 100 µM (inactive) | > 100 µM (inactive) |  | 27.7 µM (inactive) |  | > 100 µM (inactive) | > 100 µM (inactive) | > 100 µM (inactive) | 15.3 µM (inactive) |  |  | 
COC(=O)C(=O)Cc1nc2ccccc2o1 | > 100 µM (inactive) |  |  |  | > 100 µM (inactive) |  |  |  | > 100 µM (inactive) |  | > 100 µM (inactive) | > 100 µM (inactive) | > 100 µM (inactive) | > 100 µM (inactive) |  | > 100 µM (inactive) |  | > 100 µM (inactive) |  | 
CCCCCCCSc1nc2c(C(=O)OCC)ncn2c2ccccc12 | 43.3 µM (inactive) |  |  |  |  |  |  |  | > 100 µM (inactive) |  | > 100 µM (inactive) |  | > 100 µM (inactive) |  |  | > 100 µM (inactive) | > 100 µM (inactive) | > 100 µM (inactive) | > 100 µM (inactive) | > 100 µM (inactive)
N#C/C(=C1/Sc2c(nc[nH]c2=O)N1c1ccccc1)c1nc2ccccc2[nH]1 | > 100 µM (inactive) |  |  | > 100 µM (inactive) | > 100 µM (inactive) |  |  |  | > 100 µM (inactive) |  | > 100 µM (inactive) | > 100 µM (inactive) | > 100 µM (inactive) | > 100 µM (inactive) |  | > 100 µM (inactive) |  | > 100 µM (inactive) | > 100 µM (inactive) | > 100 µM (inactive)
c1ccc2c(c1)CCCC/C2=N/OCC1CO1 (stereo not drawn) |  |  |  |  |  |  |  |  |  |  | 26.4 µM (inactive) | > 100 µM (inactive) | 21.4 µM (inactive) |  |  | 99.1 µM (inactive) | 35.3 µM (inactive) | 34.8 µM (inactive) | > 100 µM (inactive) | 53.1 µM (inactive)
Cc1ccc(/N=N/C(=N\NC(=O)c2ccc(C)cc2)c2ccc(N(CCC#N)CCC#N)cc2C)cc1 | 34.4 µM (inactive) | 31 µM (inactive) | 21 µM (inactive) | 67 µM (inactive) | 47.1 µM (inactive) | 16.4 µM (inactive) | 57.8 µM (inactive) | 24 µM (inactive) | 30 µM (inactive) | 49.7 µM (inactive) | 18.7 µM (inactive) | 13.7 µM (inactive) | 17.4 µM (inactive) | > 100 µM (inactive) | 38.9 µM (inactive) | 46.7 µM (inactive) | 20.7 µM (inactive) |  |  | 
O=C(O)CN(CC(=O)O)C(C(=O)O)c1ccccc1 (stereo not drawn) | > 100 µM (inactive) | > 100 µM (inactive) | > 100 µM (inactive) | > 100 µM (inactive) | > 100 µM (inactive) | > 100 µM (inactive) | > 100 µM (inactive) | > 100 µM (inactive) | > 100 µM (inactive) | > 100 µM (inactive) | > 100 µM (inactive) | > 100 µM (inactive) | > 100 µM (inactive) | > 100 µM (inactive) | > 100 µM (inactive) | > 100 µM (inactive) | > 100 µM (inactive) |  |  | 
O=C1c2ccccc2C(=O)N1/N=C1/SC(=N\c2ccccc2)/C(=N/c2ccccc2)N1c1ccccc1 | > 45.6 µM (inactive) | > 68.1 µM (inactive) | > 100 µM (inactive) | > 100 µM (inactive) | > 100 µM (inactive) | > 22.9 µM (inactive) | > 100 µM (inactive) | > 52.6 µM (inactive) | 77.1 µM (inactive) | > 100 µM (inactive) | > 31.6 µM (inactive) | 33.2 µM (inactive) | > 40.4 µM (inactive) | > 90.4 µM (inactive) | > 100 µM (inactive) | > 66.4 µM (inactive) | > 71.3 µM (inactive) |  |  | 
Cn1cc(NC(=O)[C@H]2CCC(N)=N2)cc1C(=O)NCCC(=N)N | > 100 µM (inactive) |  |  |  |  |  |  |  | > 100 µM (inactive) |  | > 100 µM (inactive) | > 100 µM (inactive) | > 100 µM (inactive) | > 100 µM (inactive) |  | > 100 µM (inactive) | > 100 µM (inactive) | > 100 µM (inactive) | > 100 µM (inactive) | > 100 µM (inactive)
Cc1ccc(NC(=O)C(Cc2c[nH]c3ccccc23)NC(=O)Oc2ccccc2)cc1C (stereo not drawn) | > 100 µM (inactive) | 41.2 µM (inactive) | 65.2 µM (inactive) | 53 µM (inactive) | 44.3 µM (inactive) | 38.3 µM (inactive) | > 100 µM (inactive) | 37.3 µM (inactive) | 74.8 µM (inactive) | 39.5 µM (inactive) |  | > 100 µM (inactive) | 40.6 µM (inactive) | > 100 µM (inactive) | 83.8 µM (inactive) | 84.3 µM (inactive) | 73.1 µM (inactive) |  |  | 
Fc1ccc2c(c1)SC1=Nc3sc4cc(F)ccc4[n+]3CN12 | 19.5 µM (inactive) | 21.6 µM (inactive) | 39.6 µM (inactive) | 14.9 µM (inactive) | 14.5 µM (inactive) | 9.98 µM (inactive) | 26.7 µM (inactive) | 21.4 µM (inactive) | 25.8 µM (inactive) | 13.7 µM (inactive) |  | 12.7 µM (inactive) | < 0.01 µM (active) | 16.4 µM (inactive) | 18.2 µM (inactive) | 20.6 µM (inactive) | 21.3 µM (inactive) |  |  | 
CCO[C@]12C[C@H](OC)[C@@]3(O)CC(C1[C@H]3O)C13C4C2[C@H](OC)C1[C@](COC)(CN4CC)[C@H](O)C[C@@H]3OC (stereo partly drawn) | > 100 µM (inactive) |  |  |  | > 100 µM (inactive) |  |  |  | > 100 µM (inactive) |  | > 100 µM (inactive) | > 100 µM (inactive) | > 100 µM (inactive) | > 100 µM (inactive) |  | 66.2 µM (inactive) | > 100 µM (inactive) | > 100 µM (inactive) | > 100 µM (inactive) | > 100 µM (inactive)
C=CC(C)C1(CCCOCc2ccccc2)C(=S)N2CCC3(CC24CCCC14)OCCO3 (stereo not drawn) |  |  |  | > 100 µM (inactive) | 9.46 µM (inactive) |  |  |  |  |  |  |  | 1.9 µM (inactive) | 24.5 µM (inactive) |  | 9.84 µM (inactive) | 36.6 µM (inactive) | 4.97 µM (inactive) | 62.2 µM (inactive) | 10.3 µM (inactive)
